From US10913781B2, “Pepducin design and use” (Tufts Medical Center, Inc., priority 2011, dated 2021)
Each block holds one compound with its values, some of them ahead of it. Peptide text beside a SMILES is read from it. * marks the point of attachment. Palmitoyl = CCCCCCCCCCCCCCCC(=O)*

What was measured:
[1] = target: T1, PAR1 (Homo sapiens, UniProt P25116); experiment: Lung cancer cell line migration toward NIH-3T3 conditioned media (Boyden chamber); format: cell-based; design: endogenous in cells; host or cells: A549, HOP62, H1299, H522, H226, HOP92 lung carcinoma lines; settings: A549, HOP62, H1299; pepducins in lower well
T1 sequence (P25116 22-425): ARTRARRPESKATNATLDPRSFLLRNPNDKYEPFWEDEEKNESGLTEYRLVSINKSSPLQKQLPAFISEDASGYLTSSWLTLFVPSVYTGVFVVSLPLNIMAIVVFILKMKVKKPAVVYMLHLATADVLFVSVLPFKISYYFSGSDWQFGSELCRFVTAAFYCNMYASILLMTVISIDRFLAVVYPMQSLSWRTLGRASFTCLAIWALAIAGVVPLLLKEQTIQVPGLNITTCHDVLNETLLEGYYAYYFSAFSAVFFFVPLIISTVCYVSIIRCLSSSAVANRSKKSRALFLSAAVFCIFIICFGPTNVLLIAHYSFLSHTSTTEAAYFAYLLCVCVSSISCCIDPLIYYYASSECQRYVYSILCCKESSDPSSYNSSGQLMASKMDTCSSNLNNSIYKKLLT
Text: FIG. 11 illustrates PAR expression profile in lung cancer. Lung cancer cell lines (n=7) from the NCI-60 panel were characterized for surface expression of PAR1, PAR2, PAR3, and PAR4 (A) as previously described in Nguyen et al., 2006. (B): PAR mRNA expression profile in patient samples. Quantitative real-time PCR analysis of PAR1 to PAR4 (corrected for actin expression as internal control) and expressed as fold increase over nonmalignant lung tissue. Migration of lung carcinoma cell lines toward fibroblast conditioned media is expressed as cell number ±SD. (C): Silencing of PAR1 expression in A549 and HOP62 cells with shPAR1 or vector control. Surface expression of PAR1 was determined by flow cytometry using SFLLR-Ab. (D): Migration of A549 and HOP62 lung cancer cells toward NIH-3T3 conditioned media supplemented with RWJ-56110 (10 μmol/L) and SCH7979 (50 μmol/L) or vehicle (0.2% dimethyl sulfoxide). Migration of lung cancer cells treated with shPAR1 treatment or appropriate controls toward NIH-3T3 conditioned media. Basal migration toward conditioned media (vehicle treated or vector control) was normalized to 100%. *P<0.05, **P<0.01.
FIG. 12 illustrates that PAR1 is a promigratory factor in lung cancer cells. […] (G): Cell from primary lung tumors or nonmalignant control were pretreated with PAR1 pepducins and migration was determined (*P<0.05, **P<0.01). […]

[2] = target: T2, PAR4 (Homo sapiens, UniProt Q96RI0); experiment: [3H]-InsP formation in COS7 cells transfected with PAR4; format: cell-based; design: expressed in transfected cells; host or cells: COS7; settings: 100 μM AYPGKF, 30 min
T2 sequence (Q96RI0 18-385): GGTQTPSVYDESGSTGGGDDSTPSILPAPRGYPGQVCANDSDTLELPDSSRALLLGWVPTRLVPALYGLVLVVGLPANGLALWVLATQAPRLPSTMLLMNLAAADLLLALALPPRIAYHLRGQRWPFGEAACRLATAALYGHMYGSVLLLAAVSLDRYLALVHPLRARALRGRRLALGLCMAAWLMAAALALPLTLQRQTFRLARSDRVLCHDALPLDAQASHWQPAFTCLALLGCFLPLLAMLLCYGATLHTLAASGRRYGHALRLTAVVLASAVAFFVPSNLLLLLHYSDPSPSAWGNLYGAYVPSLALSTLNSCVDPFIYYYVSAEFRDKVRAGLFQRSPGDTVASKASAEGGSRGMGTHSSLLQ
Method: (§1) (A) PAR2 antagonist pepducins P2pal-18S and P2pal-14GQ inhibit calcium flux induced by PAR2 (SLIGRL) (SEQ ID NO:4) but not PAR1 (TFLLRN) (SEQ ID NO:2) agonists. SW620 cells were stably transfected with PAR1 and pretreated for 1 min with various concentrations of P2pal-18S or P2pal-14GQ and then stimulated with 30 μM PAR agonist. […] Cells were stimulated with 1 μM TFLLRN (SEQ ID NO:2), 1 μM SLIGRL (SEQ ID NO:4) or 100 μM AYPGKF (SEQ ID NO:5) and [^3H]-InsP formation measured over 30 min. (C) SW620 cells were treated with the indicated concentrations of P2pal-18S or P2pal-14GQ in the upper well of an 8-μm pore Boyden chamber and allowed to migrate for 18 h towards 10 μM of the PAR2 specific agonist SLIGRL in the lower chamber. The migration to RPMI/0.1% FBS represents random migration. (D) Migration of HEK cells transiently transfected with PAR2 (wild-type, WT), or PAR2-R36A/PAR2-RQ toward chemotactic gradients of 30 nM trypsin in the absence or presence of the indicated concentration of P2pal-18S for 18 h in a transwell apparatus ([…]). Data (n=2-4) are mean±SEM. *, P<0.05 and **, P<0.005.

[3] = target: T3, PAR2 (Homo sapiens, UniProt P55085); experiment: SW620 cell migration toward SLIGRL (Boyden chamber, 18 h); format: cell-based; design: SW620 colon adenocarcinoma cells that endogenously express PAR2; endogenous in cells; host or cells: SW620 (in A7 the SW620 cells were additionally stably transfected with PAR1); settings: 10 μM SLIGRL
Method: as §1
Target sequence in this assay (P55085 26-397): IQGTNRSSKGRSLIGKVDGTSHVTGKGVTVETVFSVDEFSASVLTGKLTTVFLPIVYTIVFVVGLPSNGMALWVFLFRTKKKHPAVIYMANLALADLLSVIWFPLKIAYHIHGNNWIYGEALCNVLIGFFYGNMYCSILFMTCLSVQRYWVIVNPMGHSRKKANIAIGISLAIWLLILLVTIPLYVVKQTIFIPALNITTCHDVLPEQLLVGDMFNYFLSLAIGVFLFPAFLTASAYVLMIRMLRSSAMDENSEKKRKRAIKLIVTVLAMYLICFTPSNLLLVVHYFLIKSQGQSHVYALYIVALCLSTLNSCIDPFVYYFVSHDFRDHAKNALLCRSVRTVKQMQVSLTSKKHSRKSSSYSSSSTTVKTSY

[4] = target: T3, PAR2; experiment: Agonist | (%)^‡; design: SW620 colon adenocarcinoma cells that endogenously express PAR2; endogenous in cells; host or cells: SW620 (in A7 the SW620 cells were additionally stably transfected with PAR1)
Target sequence in this assay (P55085 26-397 limits assumed): as the sequence (P55085 26-397) above

[5] = target: T3, PAR2; experiment: Agonist | (%)^†; design: SW620 colon adenocarcinoma cells that endogenously express PAR2; endogenous in cells; host or cells: SW620 (in A7 the SW620 cells were additionally stably transfected with PAR1); settings: 4 µM
Target sequence in this assay (P55085 26-397 limits assumed): as the sequence (P55085 26-397) above
Method: (§2) (A) Agonist and antagonist activity of third intracellular (i3) loop PAR2 pepducins (structure shown on top) using calcium flux assays with SW620 colon adenocarcinoma cells that endogenously express PAR2. Each column of three calcium flux traces corresponds to the i3 pepducin sequence shown above. The top row is the agonist activity of 3-4 μM pepducin and the middle row is the agonist activity of 14-15 μM pepducin. […] Final concentration of DMSO vehicle was 0.2%. […] (C) Agonist activity for each pepducin from (A) is reported as initial velocity of calcium flux at 4 μM pepducin (†), or at 14-15 μM pepducin (‡).

[6] = target: T1, PAR1; experiment: [3H]-InsP formation in COS7 cells transfected with PAR1; format: cell-based; design: expressed in transfected cells; host or cells: COS7; settings: 1 μM TFLLRN, 30 min
Method: as §1

[7] = target: T3, PAR2; experiment: Calcium flux screen for PAR2 pepducin agonist and antagonist activity in SW620 cells; format: cell-based; design: SW620 colon adenocarcinoma cells that endogenously express PAR2; endogenous in cells; host or cells: SW620 (in A7 the SW620 cells were additionally stably transfected with PAR1)
Target sequence in this assay (P55085 26-397): as above
Method: as §2

[8] = target: T1, PAR1; experiment: Calcium flux in SW620 cells stably transfected with PAR1, TFLLRN stimulus; format: cell-based; settings: 30 μM TFLLRN
Method: as §1

[9] = tested on: mast cell tryptase; experiment: Human neutrophil chemotaxis toward mast cell conditioned media (tryptase inhibitor); format: cell-based; settings: 10 mM APC-366; 30 min
Method: (A) Mast cells were treated with 2 mg/mL of mast cell degranulating agent 48/80 or 2% 1-carrageenan/4% kaolin. […] (B) P2pal-18S inhibits human neutrophil chemotaxis (n=6) to mast cell media. Human neutrophils were incubated with […] P2pal-18S, or […] mast cell tryptase inhibitor APC-366 and allowed to migrate 30 min toward CM from mast cells. (C) C57BL/6 mice (n=5) were pretreated with the tryptase inhibitor APC-366 (5 mg/kg, s.c.) or vehicle (20% DMSO) and then challenged with intraplantar injection of 1-carrageenan/kaolin. (D) Mast cell conditioned media (30 μL of 1-carrageenan/kaolin stimulated media) was injected into the hindpaws of C57BL/6 mice treated with 10 mg/kg P2pal-18S or vehicle (n=5). Data represent mean±SEM. #, P=0.07, *, P<0.05 and **, P<0.005. (E) Mast cell-deficient mice have a significant reduction in 1-carrageenan/kaolin induced paw edema (8 h time point, n=4-6) as compared to littermate controls. Mast-cell deficient mice or littermate controls with intact mast cells were treated with P2pal-18S (10 mg/kg, s.c.) or vehicle and hind paws challenged with 1-carrageenan/kaolin irritant. Error bars represent mean±SEM. […]

[10] = target: T4, mast cell tryptase (Mus musculus, UniProt P21845); experiment: λ-carrageenan/kaolin-induced mouse paw edema (tryptase inhibitor); format: in vivo; settings: C57BL/6 mice; 5 mg/kg s.c.
T4 construct: from tissue; host or cells: C57BL/6 mouse, hind paw in vivo
T4 sequence (P21845 32-276): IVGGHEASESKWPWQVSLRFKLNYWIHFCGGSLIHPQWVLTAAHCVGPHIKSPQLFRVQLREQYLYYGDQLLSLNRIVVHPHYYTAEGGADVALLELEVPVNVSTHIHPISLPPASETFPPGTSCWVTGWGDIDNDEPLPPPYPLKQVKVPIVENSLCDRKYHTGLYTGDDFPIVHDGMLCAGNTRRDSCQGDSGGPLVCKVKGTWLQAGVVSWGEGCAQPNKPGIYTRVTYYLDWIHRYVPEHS
Method: (A) Mast cells were treated with 2 mg/mL of mast cell degranulating agent 48/80 or 2% 1-carrageenan/4% kaolin. […] (B) P2pal-18S inhibits human neutrophil chemotaxis (n=6) to mast cell media. Human neutrophils were incubated with […] P2pal-18S, or […] mast cell tryptase inhibitor APC-366 and allowed to migrate 30 min toward CM from mast cells. (C) C57BL/6 mice (n=5) were pretreated with the tryptase inhibitor APC-366 (5 mg/kg, s.c.) or vehicle (20% DMSO) and then challenged with intraplantar injection of 1-carrageenan/kaolin. (D) Mast cell conditioned media (30 μL of 1-carrageenan/kaolin stimulated media) was injected into the hindpaws of C57BL/6 mice treated with 10 mg/kg P2pal-18S or vehicle (n=5). Data represent mean±SEM. #, P=0.07, *, P<0.05 and **, P<0.005. (E) Mast cell-deficient mice have a significant reduction in 1-carrageenan/kaolin induced paw edema (8 h time point, n=4-6) as compared to littermate controls. Mast-cell deficient mice or littermate controls with intact mast cells were treated with P2pal-18S (10 mg/kg, s.c.) or vehicle and hind paws challenged with 1-carrageenan/kaolin irritant. Error bars represent mean±SEM.
To examine whether mast cells and mast cell tryptase were activating PAR2 in the paw edema model in vivo, mice were depleted of mast cells through pretreatment with compound 48/80 (Carvalho M et al. Eur J Pharmacol (2005), 525: 161-169). […]

- Suppression of migration of PAR1-expressing adenocarcinomas [1]: no effect on migration
Compound: P1pal-19EE: negative control PAR1 i3 pepducin, 19 residues, S309 to E and A311 to E; SEQ ID NO:27 (Palmitoyl-ECESSSAEANRSKKERELF-NH2)

- Inhibition of InsP signaling from PAR4 [2]: do not inhibit
- Agonist | (%)^‡ [4]: 2%
- Agonist | (%)^† [5]: 3%
- Inhibition of InsP signaling from PAR1 [6]: do not inhibit
- Antagonist activity (inhibition of SLIGRL calcium flux, area under the curve) ([7]; 6 μM pepducin, 1 min pretreatment, against 100 μM SLIGRL): 53%
- Inhibition of PAR1 calcium flux [8]: selective for PAR2 and not PAR1
Compound: CCCCCCCCCCCCCCCC(=O)NCC(=O)N[C@@H](CC(=O)O)C(=O)N[C@@H](CCC(=O)O)C(=O)N[C@@H](CC(N)=O)C(=O)N[C@@H](CO)C(=O)N[C@@H](CCC(=O)O)C(=O)N[C@@H](CCCCN)C(=O)N[C@@H](CCCCN)C(=O)N[C@@H](CCCNC(=N)N)C(=O)N[C@@H](CCCCN)C(=O)N[C@@H](CCC(N)=O)C(=O)N[C@@H](C)C(=O)N[C@H](C(=O)N[C@@H](CCCCN)C(N)=O)[C@@H](C)CC [P2pal-14GQ] (Palmitoyl-GDENSEKKRKQAIK-NH2)
- Suppression of SW620 migration to SLIGRL [3]: not as efficacious in suppressing migration of SW620 cells to SLIGRL as compared to P2pal-18S
- Agonist activity (calcium flux) ([7]; 3-4 μM and 14-15 μM pepducin): agonist activity remained insignificant or insubstantial

- Protection in λ-carrageenan/kaolin-induced paw edema [10]: 40%
Compound: NC(=O)[C@@H]1CCCN1C(=O)[C@H](CCCN=C(N)N)NC(=O)c1ccc2ccccc2c1O [APC-366]
- Inhibition of chemotactic migration toward tryptase-containing mast cell media [9]: completely inhibited
